Series [1] deals with human breast adenocarcinoma. As to conditions: cited from earlier work.
Another series concerns DLD-1 Colon cancer cells. The series can be described thus: in vitro cytotoxicity anti tumor activity. It is filed as cell-based. The settings on record: Homo sapiens.
For another series, the system named is SNB Glioblastoma cells. The series can be described thus: in vitro cytotoxicity anti tumor activity. Type of series: cell-based.
The next series concerns Lung (LX-1) cancer cells. The series can be described thus: in vitro cytotoxicity anti tumor activity. Type of series: cell-based. The settings on record: 1 h.
The test system of a further series is CAK-1 Renal cancer cells. The series can be described thus: in vitro cytotoxicity anti tumor activity. Type of series: cell-based.
Series [2] deals with OVCAR3 ovarian cancer cells. The experiment in a line: in vitro cytotoxicity anti tumor activity. Type of series: cell-based. As to conditions: Homo sapiens.
The test system of series [3] is Lung (NCI-H23) cancer cells. The experiment in a line: in vitro cytotoxicity anti tumor activity. It is filed as cell-based. As to conditions: Homo sapiens.
For series [4], the system named is MCF7/0 human breast adenocarcinoma cells. The series can be described thus: flow cytometry P-glycoprotein function assay of doxorubicin efflux, MCF7/0 (doxorubicin sensitive). It is filed as cell-based. How it is done:
(§1) The following tests were preformed to determine the effect of NDGA on efflux of doxorubicin (hereinafter sometimes referred to as DOX) for doxorubicin sensitive MCF7/0 and doxorubicin resistant MCF7/ADR human breast adenocarcinoma cells in vitro.
(§2) The cells were exposed to 50 μg/ml NDGA for 24 hrs prior to loading with DOX (doxorubicin) at 37° C. […] PBS. Flow analysis of cell efflux of DOX was collected over 30 minutes using the time parameter.
(§3) Procedure for P-Glycoprotein (PGP) Function Assay of Doxorubicin Efflux is shown hereunder.
(§4) 1. […] Store at room temperature.
(§5) 2. Doxorubicin (GFW=580) Make a solution of doxorubicin to contain 10 μg/ml. Store frozen at 0° C.
(§6) 4. NDGA (MW=302.36) Make a solution of NDGA to contain 50 μg/ml. Store frozen at 0° C.
(§7) 5. MCF7/0 (Doxorubicin sensitive) and MCF7/ADR (Doxorubicin resistant), human breast adenocarcinoma cell lines.
(§8) 1. Make up 2×10^6 cells per ml in PBS. Expose 1 ml of cells to 50 μg of NDGA for 24 hrs at 37° C. prior to loading with Doxorubicin.
(§9) 2. Add 1 ml of 10 μg/ml doxorubicin, mix and divide into two aliquots.
(§10) 4. Incubate both tubes at 37° C. for 30 minutes.
(§11) 5. Centrifuge the tubes at 37° C. for 5 minutes on a fast spin to pellet cells. Resuspend in 1 ml of buffer.
(§12) 6. Run immediately on the flow cytometer. Excitation 488 nm, emission 560-600 nm. Collect forward and 90° side scatter and PMT4 linear scale. Collect 10,000-50,000 events and calculate the mean channel fluorescence (MCF) for PMT4.
(§13) 7. Run both samples as close together as possible, and avoid prolonged exposure to room temperature.
Background: A flow cytometer gives signals particle by particle.

The subject of a further series is WI-38 Lung Fibroblasts. The experiment in a line: in vitro cytotoxicity, normal cells. The settings on record: Homo sapiens. It is filed as cell-based.
The test system of a further series is LOX-IMVI Melanoma cells. The series can be described thus: in vitro cytotoxicity anti tumor activity. Type of series: cell-based. The settings on record: Homo sapiens.
Series [5] relates to MCF7/ADR human breast adenocarcinoma cells. The series can be described thus: flow cytometry P-glycoprotein function assay of doxorubicin efflux, MCF7/ADR (doxorubicin resistant). Type of series: cell-based. The protocol: as §1, §2, §3, §4, §5, §6, §7, §8, §9, §10, §11, §12, §13
Series [6] relates to Detroit 551 Skin Fibroblasts. The series can be described thus: in vitro cytotoxicity, normal cells. As to conditions: Homo sapiens. Type of series: cell-based.
In series [7] the test system is Hs 68 Newborn Foreskin Fibroblasts. The series can be described thus: in vitro cytotoxicity, normal cells. Type of series: cell-based. The settings on record: Homo sapiens.
Series [8] has as its system P-glycoprotein. The settings on record: known, Shalinsky et al.; cited from earlier work.
In series [9] the test system is P-glycoprotein. The settings on record: cited from earlier work.
Series [10] concerns KB-3-1 human cervical carcinoma cells. The experiment in a line: inhibition of colony formation, KB-3-1. It is filed as cell-based. As to conditions: KB 3-1, 240 h, read-out: IC50 (VBL), 50% inhibition of colony formation. The text has this:
(§14) To investigate whether masoprocol modulates multidrug resistance, a line of multidrug resistant (GRC-1) cells which were derived from parenteral drug sensitive human cervical carcinoma (KB-3-1) cells by transfection of the mdr1 genes were employed. Such transfection was by the method set forth in Choi, et al., Cell 53:519-529, 1989. These cell lines differ only with respect to the over-expression of P-glycoprotein. These tests were designed to examine whether masoprocol modulates tumor cell drug resistance by interfering with P-glycoprotein function. […] See, Regulation of initial vinblastine influx by P-glycoprotein, Shalinsky, et al., cited above.
Masoprocol was provided by Chemex Pharmaceuticals, Inc. (Fort Lee, N.J.). Tritiated vinblastine ([^3 H]VBL) (10 Ci mmol^-1) was purchased from Moravek Biochemicals (Brea, Calif.), stored in the dark at -80° C. and protected from light during the experiments. […]
(§15) First, cells which had been seeded at 200-300 cells/dish were incubated in media containing masoprocol or VBL. After an incubation period of 10 days at 37° C. the cells were fixed with methanol and stained with Giemsa, and the number of colonies per dish were counted and expressed as a percent of the number of colonies in control conditions. […] Parenthesis indicate standard deviations determined from replicate experiments.

In series [11] the test system is GRC-1 multidrug resistant human cervical carcinoma cells. The series can be described thus: inhibition of colony formation, GRC-1. It is filed as cell-based.
From the text: as §14
Masoprocol was provided by Chemex Pharmaceuticals, Inc. (Fort Lee, N.J.). Tritiated vinblastine ([^3 H]VBL) (10 Ci mmol^-1) was purchased from Moravek Biochemicals (Brea, Calif.), stored in the dark at -80° C. and protected from light during the experiments. Dipyridamole (DPM) was provided by Boerhinger Ingelheim Pharmaceuticals, Inc. (Ridgefield, Conn.).
Drug-sensitive KB-3-1 cells and the drug resistant subline (KB-GRC-1) were obtained from Dr. Igor Roninson (University of Illinois, College of Medicine, Chicago, Ill.). Cells were maintained in Dulbecco's modified Eagle's medium supplemented with 10% fetal bovine serum and 2 mM glutamine. The KB-GRC-1 cells were maintained in medium supplemented with 6 ng/ml colchicine.
as §15

Where [12] appears, read: No NDGA, DOX + Verapamil (30 μl of a 1 mM solution).
Setting [13] is: No NDGA, DOX alone, 5 μg×30 min, 37° C.
The mark [14] stands for this setting: RX NDGA (50 μg/ml, 24 hrs), DOX.
Where [15] appears, read: RX NDGA (50 μg/ml, 24 hrs), DOX + Verapamil.

Each structure is given as a SMILES string.

`C[C@@H](Cc1ccc(O)c(O)c1)[C@@H](C)Cc1ccc(O)c(O)c1` (relative stereo) [d,l NDGA]: in [1], the “effectiveness against human breast adenocarcinoma” value (shortened to “effectiveness”) is reported as “particularly effective”.

For `COc1cc(CC(C)C(C)Cc2ccc(O)c(OC)c2)ccc1O` (centres unmarked) [1,4-bis(3'-methoxy-4'-hydroxyphenyl)-2,3-dimethyl butane], the “effectiveness” value in series [1] is listed as “particularly effective”.

For the molecule `COc1cc(CCCCc2ccc(O)c(OC)c2)ccc1O` [1,4-bis(3'-methoxy-4'-hydroxyphenylbutane], the “effectiveness” value in series [1] is recorded as “particularly effective”.

With `Oc1ccc(CCCCc2cc(O)c(O)c(O)c2)cc1O` [1-(3',4'-dihydroxyphenyl)-4(3',4',5'-trihydroxyphenyl)-butane], in [1], the “effectiveness” value is given as “particularly effective”.

With `Oc1ccc(CCCCc2ccc(O)c(O)c2O)cc1O` [1-(3',4'-dihydroxyphenyl)-4-(2',3',4'-trihydroxphenyl)-butane], the “effectiveness” value in series [1] is listed as “particularly effective”.

As to `Oc1ccc(O)c(CCCCc2ccc(O)c(O)c2)c1` [1-(3',4'-dihydroxyphenyl)-4-(2',5'-dihydroxyphenyl)-butane], in series [1], the “effectiveness” value is reported as “particularly effective”.

With `Oc1ccc(CCCCc2ccccc2)cc1O` [1-(3',4'-dihydroxyphenyl)-4-phenyl butane], the “effectiveness” value in series [1] is listed as “particularly effective”.

The term IC50 denotes the concentration needed to halve the response being measured. In the case of `COc1cccc2c1C(=O)c1c(O)c3c(c(O)c1C2=O)C[C@@](O)(C(=O)CO)C[C@@H]3O[C@H]1C[C@H](N)[C@H](O)[C@H](C)O1` [Doxorubicin], the IC50 in the series on DLD-1 Colon cancer cells (DLD-1, 1 h) is 3.7 µM; in the series with DLD-1 Colon cancer cells (DLD-1, 70 h), 0.42 µM; with SNB Glioblastoma cells (1 h) it was 0.7 µM; in the series on SNB Glioblastoma cells (70 h) it was 0.03 µM; in the series on Lung (LX-1) cancer cells, 26 µM; with CAK-1 Renal cancer cells (1 h) it was 3.8 µM. The IC50 worked out at 0.11 µM in the series on CAK-1 Renal cancer cells (70 h); 13.8 µM in [2] (OVCAR-3, 1 h); 0.7 µM in [2] (OVCAR-3, 70 h); 9.3 µM in series [3] (NCI-H23, 1 h); 0.15 µM in [3] (NCI-H23, 70 h); 10 µM in the series with WI-38 Lung Fibroblasts (WI-38, 1 h). For the same molecule, the concentration for half-maximal inhibition (IC50) in the series on WI-38 Lung Fibroblasts (WI-38, 70 h) is 0.6 µM; with LOX-IMVI Melanoma cells (1 h), 4.8 µM; in the series on LOX-IMVI Melanoma cells (70 h), 0.09 µM; in series [6] (Detroit 551, 1 h), 3.2 µM; in [6] (Detroit 551, 70 h) it was 5.5 µM; in [7] (Hs68, 1 h), 11.6 µM. Besides, the IC50 in series [7] (Hs68, 70 h) was determined as 0.12 µM. In addition, the “Mean channel fluorescence (loading of DOX in cells)” value in series [4] (setting [12]) was 312.8; in series [4] (setting [13]), 318.7; in series [4] (setting [14]), 460.4; in series [4] (setting [15]), 435.6; in series [5] (setting [12]), 309.9; in series [5] (setting [13]), 227.4. The figures for the “Mean channel fluorescence (loading of DOX in cells)” value in [5] (setting [14]) and in series [5] (setting [15]) were 285.6 and 365.4, respectively.

For the molecule `CC(=O)Oc1ccc(C[C@@H](C)[C@@H](C)Cc2ccc(OC(C)=O)c(OC(C)=O)c2)cc1OC(C)=O` [NDGA Tetracetate], in series [1], the “effectiveness” value is “particularly effective”.

Consider `CCC(=O)Oc1ccc(C[C@@H](C)[C@@H](C)Cc2ccc(OC(=O)CC)c(OC(=O)CC)c2)cc1OC(=O)CC` [NDGA Tetrapropionate], for which the “effectiveness” value in series [1] is “particularly effective”.

Turning to `CC[C@]1(O)C[C@@H]2CN(CCc3c([nH]c4ccccc34)[C@@](C(=O)OC)(c3cc4c(cc3OC)N(C)[C@H]3[C@@](O)(C(=O)OC)[C@H](OC(C)=O)[C@]5(CC)C=CCN6CC[C@]43[C@@H]65)C2)C1` [VBL], the P-glycoprotein substrate entry in the series with P-glycoprotein [8] is reported as “known to be a P-glycoprotein substrate”. The “steady state accumulation and efflux in cells overexpressing mdr1” value in the series with P-glycoprotein [9] was “decreased steady state accumulation and increased efflux”. The IC50 in [10] is 0.00138 µM; in series [11] (Homo sapiens, 240 h, read-out: IC50 (VBL), 50% inhibition of colony formation) it was 0.0522 µM. Also, the “sensitivity of GRC-1 compared with KB-3-1 cells” value in series [11] (GRC-1 vs KB-3-1) is on record as “large differences in sensitivity”.

The values are drawn from patent US5541232A, “Treatment of multidrug resistant diseases” (Chemex Pharmaceuticals, Inc., priority 1994, dated 1996).
